Measurements from patent US20160176880A1, “SUBSTITUTED IMIDAZO[1,2-A]PYRAZINECARBOXAMIDES AND USE THEREOF” (BAYER PHARMA AKTIENGESELLSCHAFT, priority 2013, published 2016).

target: T1, recombinant guanylate cyclase reporter cell line (Rattus norvegicus, UniProt P19686+P20595); experiment: Effect on a recombinant guanylate cyclase reporter cell line; assay type: cell-based; conditions: MEC = minimum effective concentration; in some cases mean values for individual determinations
T1 construct: expressed in transfected cells
T1 sequence (P19686 1-690): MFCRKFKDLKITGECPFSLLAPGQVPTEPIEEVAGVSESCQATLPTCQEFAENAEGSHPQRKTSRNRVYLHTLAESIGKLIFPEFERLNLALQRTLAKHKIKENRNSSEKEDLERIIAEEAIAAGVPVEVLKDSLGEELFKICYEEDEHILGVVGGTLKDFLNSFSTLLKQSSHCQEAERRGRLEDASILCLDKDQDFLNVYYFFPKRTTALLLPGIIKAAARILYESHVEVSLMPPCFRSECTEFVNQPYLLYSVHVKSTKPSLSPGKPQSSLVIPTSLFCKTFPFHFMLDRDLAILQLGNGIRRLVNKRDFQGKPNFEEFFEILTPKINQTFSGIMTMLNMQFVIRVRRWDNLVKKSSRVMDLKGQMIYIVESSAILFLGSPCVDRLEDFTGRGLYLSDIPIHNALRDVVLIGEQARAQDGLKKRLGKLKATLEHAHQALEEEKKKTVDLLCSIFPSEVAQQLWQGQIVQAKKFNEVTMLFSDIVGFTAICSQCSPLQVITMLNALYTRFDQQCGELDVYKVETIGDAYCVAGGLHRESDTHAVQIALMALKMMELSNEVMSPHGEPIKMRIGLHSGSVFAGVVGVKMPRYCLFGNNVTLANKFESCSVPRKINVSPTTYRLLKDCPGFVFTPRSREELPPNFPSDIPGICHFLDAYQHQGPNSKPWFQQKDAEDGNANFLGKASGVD
T1 sequence (P20595 1-619): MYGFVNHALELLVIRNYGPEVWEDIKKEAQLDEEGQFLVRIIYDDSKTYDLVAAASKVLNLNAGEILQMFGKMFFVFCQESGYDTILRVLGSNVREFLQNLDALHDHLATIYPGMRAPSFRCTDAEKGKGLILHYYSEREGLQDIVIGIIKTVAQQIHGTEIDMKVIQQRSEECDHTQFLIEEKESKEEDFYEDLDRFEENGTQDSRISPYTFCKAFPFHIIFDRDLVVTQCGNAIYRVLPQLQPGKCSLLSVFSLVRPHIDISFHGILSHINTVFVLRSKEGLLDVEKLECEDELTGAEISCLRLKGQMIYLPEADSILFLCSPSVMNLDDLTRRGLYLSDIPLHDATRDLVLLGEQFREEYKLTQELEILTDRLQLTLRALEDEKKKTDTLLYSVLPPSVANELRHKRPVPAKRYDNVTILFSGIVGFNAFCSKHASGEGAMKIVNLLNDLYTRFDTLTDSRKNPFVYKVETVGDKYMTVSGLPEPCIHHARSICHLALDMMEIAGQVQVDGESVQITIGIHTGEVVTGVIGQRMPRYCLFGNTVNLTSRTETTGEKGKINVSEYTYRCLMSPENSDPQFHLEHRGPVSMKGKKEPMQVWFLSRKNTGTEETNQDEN
Summary of the method: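 Compounds tested in a recombinant guanylate cyclase reporter cell line per a published method. Potency expressed as minimum effective concentration (MEC), sometimes as mean of individual determinations.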

SMILES | MEC
Cc1cn2c(C(=O)NOCCO)c(C)nc2c(OCc2c(F)cccc2F)n1 [Example 44, 8-[(2,6-Difluorobenzyl)oxy]-N-(2-hydroxyethoxy)-2,6-dimethylimidazo[1,2-a]pyrazine-3-carboxamide] | 10 µM
Cc1cn2c(C(=O)N[C@H]3CCNC3=O)c(C)nc2c(OCc2c(F)cccc2F)n1 [Example 9, 8-[(2,6-Difluorobenzyl)oxy]-2,6-dimethyl-N-[(3S)-2-oxopyrrolidin-3-yl]imidazo[1,2-a]pyrazine-3-carboxamide] | 3 µM
CCC(N)(CC)CNC(=O)c1c(C)nc2c(OCc3c(F)cccc3F)nc(C)cn12 [Example 15, N-(2-amino-2-ethylbutyl)-8-[(2,6-difluorobenzyl)oxy]-2,6-dimethylimidazo[1,2-a]pyrazine-3-carboxamide] | 1 µM
Cc1cn2c(C(=O)NNc3ccc(F)cc3)c(C)nc2c(OCc2c(F)cccc2F)n1 [Example 52, 8-[(2,6-difluorobenzyl)oxy]-N′-(4-fluorophenyl)-2,6-dimethylimidazo[1,2-a]pyrazine-3-carbohydrazide] | 0.3 µM
Cc1cn2c(C(=O)Nc3c(C)nn(Cc4ccc(F)cc4)c3C)c(C)nc2c(OCc2c(F)cccc2F)n1 [Example 23, 8-[(2,6-difluorobenzyl)oxy]-N-[1-(4-fluorobenzyl)-3,5-dimethyl-1H-pyrazol-4-yl]-2,6-dimethylimidazo[1,2-a]pyrazine-3-carboxamide] | 1 µM
